Results reported in ChEMBL document CHEMBL1201862, “PubChem BioAssay data set” (2004).
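Cultured in 96-well plates, cells were exposed to test compound for 48 hours across five concentrations. GI50 marks 50% less growth.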 Calls of active or inactive are those of the source. Rule as the data show it: active = GI50 up to about 1.1 µM and inactive = higher.

Experiments:
Assay in all cases: growth of human tumour cells (NCI), 48 h
SR = test system: SR
OVCAR-8 = test system: OVCAR-8
786-0 = test system: 786-0
SK-OV-3 = test system: SK-OV-3
HOP-62 = test system: HOP-62
MOLT-4 = test system: MOLT-4
HCC 2998 = test system: HCC 2998
OVCAR-5 = test system: OVCAR-5
KM12 = test system: KM12
U-251 = test system: U-251
SK-MEL-28 = test system: SK-MEL-28
DMS-273 = test system: DMS-273
DMS-114 = test system: DMS-114
CCRF-CEM = test system: CCRF-CEM
RXF 393 = test system: RXF 393
HOP-18 = test system: HOP-18
SF-539 = test system: SF-539
IGROV-1 = test system: IGROV-1
OVCAR-3 = test system: OVCAR-3
CAKI-1 = test system: CAKI-1
HCT-116 = test system: HCT-116
Malme-3M = test system: Malme-3M
EKVX = test system: EKVX
HCT-15 = test system: HCT-15
SK-MEL-2 = test system: SK-MEL-2
HL-60 = test system: HL-60
HT-29 = test system: HT-29
K562 = test system: K562
M14 = test system: M14
ACHN = test system: ACHN
NCI-H226 = test system: NCI-H226
SN12C = test system: SN12C
LXFL 529 = test system: LXFL 529
SF-268 = test system: SF-268
XF498 = test system: XF498
RPMI-8226 = test system: RPMI-8226
A498 = test system: A498
RXF 631 = test system: RXF 631
UACC-257 = test system: UACC-257
HOP-92 = test system: HOP-92
SK-MEL-5 = test system: SK-MEL-5
UO-31 = test system: UO-31
NCI-H460 = test system: NCI-H460
SNB-75 = test system: SNB-75
UACC-62 = test system: UACC-62
SW-620 = test system: SW-620
SF-295 = test system: SF-295
TK-10 = test system: TK-10
M19-MEL = test system: M19-MEL
OVCAR-4 = test system: OVCAR-4
A549 = test system: A549
NCI-H522 = test system: NCI-H522
NCI-H23 = test system: NCI-H23
SNB-19 = test system: SNB-19
LOX IMVI = test system: LOX IMVI
KM-20L2 = test system: KM-20L2
SNB-78 = test system: SNB-78
DLD-1 = test system: DLD-1
COLO 205 = test system: COLO 205
MCF7 = test system: MCF7
PC-3 = test system: PC-3
T47D = test system: T47D
Hs-578T = test system: Hs-578T
MDA-MB-231 = test system: MDA-MB-231
NCI/ADR-RES = test system: NCI/ADR-RES
MDA-MB-435 = test system: MDA-MB-435
BT-549 = test system: BT-549
DU-145 = test system: DU-145
MDA-N = test system: MDA-N

Measured: GI50

CN(C)c1ccc2nc3c(ccc4ccccc43)[o+]c2c1
inactive: SR 3.42 µM | OVCAR-8 12.4 µM | 786-0 15.5 µM | SK-OV-3 15.7 µM | HOP-62 19 µM | MOLT-4 2.99 µM | HCC 2998 17.5 µM | OVCAR-5 21.9 µM | KM12 15 µM | U-251 16.1 µM | SK-MEL-28 14.8 µM | DMS-273 17.9 µM | DMS-114 19.3 µM | CCRF-CEM 3.17 µM | RXF 393 13.3 µM | HOP-18 10.1 µM | SF-539 18.2 µM | IGROV-1 12.3 µM | OVCAR-3 3.89 µM | CAKI-1 15.5 µM | HCT-116 5.97 µM | Malme-3M 12.9 µM | EKVX 20.9 µM | SK-MEL-2 19.6 µM | HL-60 1.95 µM | HT-29 15.3 µM | K562 2.74 µM | M14 11 µM | ACHN 13.8 µM | NCI-H226 17.7 µM | SN12C 17.1 µM | LXFL 529 6.53 µM | SF-268 15.8 µM | XF498 14.4 µM | RPMI-8226 3.48 µM | A498 17.8 µM | RXF 631 7.91 µM | UACC-257 4.67 µM | HOP-92 18.3 µM | SK-MEL-5 13.4 µM | UO-31 17.7 µM | NCI-H460 16.2 µM | SNB-75 17.5 µM | UACC-62 11.5 µM | SW-620 3.2 µM | SF-295 15.5 µM | TK-10 17.3 µM | M19-MEL 3.03 µM | OVCAR-4 12.8 µM | A549 18.7 µM | NCI-H522 2.52 µM | NCI-H23 14 µM | SNB-19 17.7 µM | LOX IMVI 6 µM | KM-20L2 13.8 µM | SNB-78 14.6 µM | DLD-1 5.51 µM | COLO 205 16.3 µM
11.8 µM: HCT-15

O=NN(CCCl)C(=O)NCCCl [CARMUSTINE]
inactive: SR 14 µM | OVCAR-8 77.8 µM | MCF7 68.9 µM | 786-0 42.3 µM | SK-OV-3 115 µM | HOP-62 97.3 µM | MOLT-4 33.5 µM | HCC 2998 93.8 µM | OVCAR-5 105 µM | PC-3 97.7 µM | KM12 88.9 µM | U-251 52.1 µM | SK-MEL-28 81.5 µM | DMS-273 74 µM | DMS-114 61.5 µM | CCRF-CEM 18.7 µM | RXF 393 76.2 µM | HOP-18 91.4 µM | SF-539 44.8 µM | T47D 110 µM | IGROV-1 70.6 µM | OVCAR-3 83.6 µM | CAKI-1 71.9 µM | Hs-578T 103 µM | HCT-116 73.6 µM | Malme-3M 81.5 µM | EKVX 120 µM | SK-MEL-2 91 µM | HL-60 16.7 µM | HT-29 79.3 µM | MDA-MB-231 91 µM | K562 45.8 µM | M14 78.7 µM | NCI/ADR-RES 94.6 µM | ACHN 83 µM | NCI-H226 105 µM | SN12C 75.9 µM | LXFL 529 71.4 µM | SF-268 38.6 µM | XF498 68.1 µM | RPMI-8226 51.3 µM | A498 102 µM | RXF 631 80.2 µM | UACC-257 75.5 µM | HOP-92 65.2 µM | SK-MEL-5 78.7 µM | UO-31 98.2 µM | NCI-H460 52.5 µM | SNB-75 52.2 µM | MDA-MB-435 75.5 µM | UACC-62 23.8 µM | BT-549 79.3 µM | DU-145 169 µM | SW-620 52.2 µM | SF-295 44.5 µM | TK-10 93.1 µM | MDA-N 71.3 µM | M19-MEL 77.6 µM | OVCAR-4 87.9 µM | A549 103 µM | NCI-H522 42.9 µM | NCI-H23 88.1 µM | SNB-19 68.4 µM | LOX IMVI 38 µM | KM-20L2 94 µM | SNB-78 88.9 µM | DLD-1 76.6 µM | COLO 205 72.3 µM
64.6 µM: HCT-15
